In patent US6762178B2, “Acetylenic aryl sulfonamide and phosphinic acid amide hydroxamic acid TACE inhibitors” (Wyeth Holdings Corporation, priority 1999, dated 2004):

How the values were obtained:
MMP-9 = MMP-9 (Homo sapiens, UniProt P14780); test: MMP-9 inhibition (thiopeptide or fluorescent peptide substrate); assay type: biochemical
Description: (§1) The enzyme activity is measured by the rate of the color increase. The thiopeptide substrate is made up fresh as a 20 mM stock in 100% DMSO and the DTNB is dissolved in 100% DMSO as a 100 mM stock and stored in the dark at room temperature. Both the substrate and DTNB are diluted together to 1 mM with substrate buffer (50 mM HEPES pH 7.5, 5 mM CaCl2) before use. The stock of enzyme is diluted with buffer (50 mM HEPES, pH 7.5, 5 mM CaCl2, 0.02% Brij) to the desired final concentration.
(§2) Alternatively, a fluorescent peptide substrate is used. In this test procedure, the peptide substrate contains a fluorescent group and a quenching group. Upon cleavage of the substrate by an MMP, the fluorescence that is generated is quantitated on the fluorescence plate reader. The assay is run in HCBC assay buffer (50 mM HEPES, pH 7.0, 5 mM Ca^+2, 0.02% Brij, 0.5% Cysteine), with human recombinant MMP-1, MMP-9, or MMP-13. The substrate is dissolved in methanol and stored frozen in 1 mM aliquots. For the assay, substrate and enzymes are diluted in HCBC buffer to the desired concentrations. […]
(§3) For either the thiopeptide or fluorescent peptide test procedures, the slope of the line is calculated and represents the reaction rate. […] The mean (x±sem) of the control rate is calculated and compared for statistical significance (p<0.05) with drug-treated rates using Dunnett's multiple comparison test.

THP-1 cells = test: THP-1 soluble protein assay; assay type: cell-based, human; details: LPS-stimulated THP-1 cells
From the text: In addition, non-stimulated THP-1 cells shed both the p75/80 and the p55/60 receptors over time. The release of membrane bound TNF-α and possibly TNF-R p75/80 and TNF-R p55/60, but not IL-8, is mediated by an enzyme called TNF-a converting enzyme or TACE.
THP-1 cells (from ATCC) are a human monocytic cell line which were obtained from the peripheral blood of a person with acute monocytic leukemia. They can be grown in culture and differentiated into macrophage like cells by stimulation with mitogens.
Each vial of cells are cultured for about two weeks prior to being used for an assay and then are used for only 4 to 6 weeks to screen compounds.
Cell exposure to DMSO was limited to 0.1% final concentration. […] Compounds can be evaluated for their effect on basal (non-stimulated) shedding of the receptors by replacing the LPS with […] of THP-1 media. Plates are placed into an incubator set at 5% CO2 and at 37° C. […]
In addition, at the 24 hours timepoint, and the cells for each treatment group are collected by resuspension in 500 μl/well of THP-1 media and transferred into a FACS tube. […] The samples are run on a Becton Dickinson FaxCaliber FLOW cytometry machine and the amount of dye taken up by each cell is measured in the high red wavelength (FL3). […] The percent of live cells is calculated by the number of cells not stained with PI, divided by the total number of cells in the sample. […]

MMP-1 = molecular target: T1, MMP-1 (Homo sapiens, UniProt P03956); test: MMP-1 inhibition (thiopeptide or fluorescent peptide substrate); assay type: biochemical
T1 sequence (P03956 100-469): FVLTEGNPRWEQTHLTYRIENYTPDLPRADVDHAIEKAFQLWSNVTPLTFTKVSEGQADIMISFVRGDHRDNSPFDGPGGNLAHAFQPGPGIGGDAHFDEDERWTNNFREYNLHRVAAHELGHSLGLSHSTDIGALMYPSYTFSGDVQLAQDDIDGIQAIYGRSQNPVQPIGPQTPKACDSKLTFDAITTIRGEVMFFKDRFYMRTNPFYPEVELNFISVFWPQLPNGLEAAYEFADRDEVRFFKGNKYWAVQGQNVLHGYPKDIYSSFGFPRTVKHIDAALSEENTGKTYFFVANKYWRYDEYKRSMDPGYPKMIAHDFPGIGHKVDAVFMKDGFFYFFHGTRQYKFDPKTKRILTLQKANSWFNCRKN
Description: as §1, §2, §3

[1] = molecular target: TNF-α converting enzyme (TACE) (Homo sapiens, UniProt P78536); test: TACE inhibition (fluorescent peptidyl substrate); assay type: biochemical
Description: Using 96-well black microtiter plates, each well receives a solution composed of 10 μL TACE (final concentration 1 μg/mL), 70 μL Tris buffer, pH 7.4 containing 10% glycerol (final concentration 10 mM), and 10 μL of test compound solution in DMSO (final concentration 1 μM, DMSO concentration <1%) and incubated for 10 minutes at room temperature. The reaction is initiated by addition of a fluorescent peptidyl substrate (final concentration 100 μM) to each well and then shaking on a shaker for 5 sec.
The reaction is read (excitation 340 nm, emission 420 nm) for 10 min. and the increase in fluorescence over time is plotted as a linear line. The slope of the line is calculated and represents the reaction rate.
The mean (x±sem) of the control rate is calculated and compared for statistical significance (p<0.05) with drug-treated rates using Dunnett's multiple comparison test.

MMP-13 = MMP-13 (Homo sapiens, UniProt P45452); test: MMP-13 inhibition (thiopeptide or fluorescent peptide substrate); assay type: biochemical
Description: as §1, §2, §3

MMP-9, sequence (P14780 94-707): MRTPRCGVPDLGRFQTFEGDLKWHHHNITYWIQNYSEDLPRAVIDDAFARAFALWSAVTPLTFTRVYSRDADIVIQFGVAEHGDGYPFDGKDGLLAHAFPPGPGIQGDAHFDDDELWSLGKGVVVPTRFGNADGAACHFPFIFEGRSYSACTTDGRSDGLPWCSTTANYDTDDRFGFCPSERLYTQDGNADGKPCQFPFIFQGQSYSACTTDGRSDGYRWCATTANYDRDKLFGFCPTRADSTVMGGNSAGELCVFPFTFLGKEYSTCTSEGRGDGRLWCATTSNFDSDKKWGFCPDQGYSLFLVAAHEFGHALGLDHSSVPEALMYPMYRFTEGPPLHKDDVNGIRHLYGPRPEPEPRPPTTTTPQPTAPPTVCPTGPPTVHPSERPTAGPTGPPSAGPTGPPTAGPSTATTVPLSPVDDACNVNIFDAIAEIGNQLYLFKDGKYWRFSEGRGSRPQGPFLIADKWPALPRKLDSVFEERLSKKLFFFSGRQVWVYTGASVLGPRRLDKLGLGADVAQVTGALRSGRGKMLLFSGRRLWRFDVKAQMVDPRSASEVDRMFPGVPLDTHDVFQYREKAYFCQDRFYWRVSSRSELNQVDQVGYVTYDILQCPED
TNF-α converting enzyme (TACE), sequence (P78536 215-824, species assumed): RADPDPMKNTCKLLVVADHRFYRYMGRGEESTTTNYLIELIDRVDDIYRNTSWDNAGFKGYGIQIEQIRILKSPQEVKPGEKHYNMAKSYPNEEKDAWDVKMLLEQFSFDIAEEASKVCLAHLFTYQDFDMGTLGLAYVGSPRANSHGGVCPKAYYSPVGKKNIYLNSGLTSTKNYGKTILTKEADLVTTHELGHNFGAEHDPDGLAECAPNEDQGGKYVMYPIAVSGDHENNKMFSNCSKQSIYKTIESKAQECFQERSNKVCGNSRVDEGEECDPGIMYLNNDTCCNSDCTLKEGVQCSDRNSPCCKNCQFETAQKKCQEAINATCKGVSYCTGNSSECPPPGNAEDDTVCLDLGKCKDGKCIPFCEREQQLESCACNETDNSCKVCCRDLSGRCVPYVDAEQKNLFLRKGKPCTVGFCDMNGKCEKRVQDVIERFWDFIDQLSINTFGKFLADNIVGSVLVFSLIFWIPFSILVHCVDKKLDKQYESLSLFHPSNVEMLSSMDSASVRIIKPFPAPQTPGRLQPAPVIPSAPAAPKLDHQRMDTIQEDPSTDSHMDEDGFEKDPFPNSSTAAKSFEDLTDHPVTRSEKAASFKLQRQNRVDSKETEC

In the case of “5-Bromo-2-[(4-butoxy-benzenesulfonyl)-methyl-amino]-N-hydroxy-3-methyl-benzamide [Example 39]”, the IC50 (MMP-9) is reported as 21 nM, the “THP % Inhib. @ 3 μM” value (THP-1 cells) is reported as 0% and the IC50 (MMP-1) is reported as 2490 nM. For the same substance, the IC50 [1] was 67 nM and the IC50 (MMP-13) was 68 nM.
